What was measured:
E. coli = experiment: Molecular phenotypic antimicrobial susceptibility test with direct PCR (no extraction DNA purification step); assay type: cell-based, Escherichia coli; details: specimen with <10,000 cells/mL, direct PCR after 16 hours of incubation
Procedure: Detection of Molecular Phenotypic Antimicrobial Susceptibility. Disclosed herein are the methods for the detection of phenotypic antimicrobial susceptibility via molecular methods. The present invention describes how a specimen 100 with a known microbial load is incubated and then exposed to a panel of antimicrobial agents to determine sensitivity (prevention of growth) or resistance (allowance of growth) to the specific antimicrobial agents tested utilizing molecular methods.
Sample Collection. Specimens 100 are collected from patients using sterile collection processes that are employed in routine clinical care. Specimens are transported to the testing facility in boric acid preservative. Specimens 100 are subsequently divided into a first sample 104 and a second sample 108.
Preparation of the Specimens for Testing. The specimens 100 are put through a pathogen identification process using PCR technology (e.g., using the first sample 104). The process for pathogen isolation includes steps of harvesting the pathogen (e.g., via centrifugation), isolating pathogen DNA via a DNA isolation and/or purification kit, and performing PCR on the pathogen DNA via PCR components (e.g., primers, enzymes, buffers) as would be known to the skilled artisan. Simultaneously, an additional aliquot of the same specimen (e.g., the second sample 108) is placed with liquid culture media and incubated for 4-6 hours. This aliquot is used for antimicrobial susceptibility testing if indicated based on the pathogen detection results. After pathogen identification is completed and if more than 10,000 cells/mL of bacteria (e.g., eligible bacteria) are detected in the source specimen, the second sample 108 then enters the antimicrobial susceptibility phase of testing. Specimens 100 with lower pathogen loads could also be utilized in the antibiotic susceptibility phase of testing with or without a longer incubation period.
Preparation of Antimicrobial Susceptibility Testing Plates. Antimicrobial solutions are prepared at known concentrations. The specific antimicrobials and their concentrations are selected based on the pathogen of interest and the described antimicrobial resistance breakpoints for that specimen pathogen and antimicrobial combination. These antimicrobials have been selected based on those commonly utilized by healthcare providers in routine clinical care for the specific type of suspected infection. The number and types of antimicrobials utilized can be customized based on the infection source, pathogen detected, patient-specific factors such as allergies or other health conditions (e.g., chronic kidney disease or concurrent medication use), or healthcare provider preferences such as antimicrobial availability or cost.
The antimicrobial solutions are prepared in liquid culture media (such as Muller Hinton Broth) to achieve the desired antimicrobial concentration and are then stored at −80° C. until use. For a given specimen, each antimicrobial is tested at a single or multiple antimicrobial concentration(s) which is its established breakpoints for sensitivity. The antimicrobial solutions are prepared and plated out for each specific pathogen. This allows ease of use on the day of testing after defrosting the plate 112. Table 1, which illustrates the results of molecular phenotypic antimicrobial susceptibility testing when more than one organism is present in the source specimen, provides an example of an antimicrobial plate 112 prepared for this purpose. Of note, control wells containing only culture media are present on all plates 112. This allows for evaluation of pathogen load when no antimicrobial is present.
Specimen Exposure to Antimicrobial Agents. The 1 mL aliquot of the specimen 100 previously mixed with culture media and incubated is obtained. Using optical density measurements as a guide, the specimen 100 is diluted to 0.5 McFarland. […]

pathogen of the specimen [1] = experiment: Traditional culture-based antimicrobial susceptibility test (comparison of Table 7); assay type: cell-based; details: E. coli isolate 1189
Procedure: Table 7 illustrates the results of an example antimicrobial agent susceptibility test of the current application versus a traditional culture-based antimicrobial agent susceptibility test at multiple incubation timepoints, in accordance with one or more embodiments of the disclosure. These specimens were tested with direct PCR (e.g., no extraction DNA purification step prior to PCR). […] Result Reporting to Healthcare Providers. The results from the antimicrobial exposure are reported to the ordering healthcare provider. This information can be utilized by the healthcare provider when selecting an antimicrobial regimen for their individual patient based on these individual specimen results and patient specific factors. […] The current standard of care for antimicrobial susceptibility testing involves the growth, isolation, and exposure of pathogens to antimicrobials. This traditional culture and sensitivity process can take multiple days to obtain results, limiting the ability of healthcare providers to receive timely results to make actionable changes in patient care or management. Healthcare providers desire a method to obtain antimicrobial susceptibility results with quicker turn-around-time. This application discloses a molecular-based phenotypic antimicrobial susceptibility method which involves pathogen exposure to a panel of antimicrobial agents at their specified minimum inhibitory concentration breakpoints for sensitivity. This method allows for more timely antimicrobial susceptibility results.

pathogen of the specimen [2] = experiment: Molecular phenotypic antimicrobial susceptibility test with direct PCR at various incubation timepoints (Table 7); assay type: cell-based
Procedure: Detection of Molecular Phenotypic Antimicrobial Susceptibility. Disclosed herein are the methods for the detection of phenotypic antimicrobial susceptibility via molecular methods. The present invention describes how a specimen 100 with a known microbial load is incubated and then exposed to a panel of antimicrobial agents to determine sensitivity (prevention of growth) or resistance (allowance of growth) to the specific antimicrobial agents tested utilizing molecular methods. Sample Collection. Specimens 100 are collected from patients using sterile collection processes that are employed in routine clinical care. Specimens are transported to the testing facility in boric acid preservative. […] The process for pathogen isolation includes steps of harvesting the pathogen (e.g., via centrifugation), isolating pathogen DNA via a DNA isolation and/or purification kit, and performing PCR on the pathogen DNA via PCR components (e.g., primers, enzymes, buffers) as would be known to the skilled artisan. […] This aliquot is used for antimicrobial susceptibility testing if indicated based on the pathogen detection results. […] Specimens 100 with lower pathogen loads could also be utilized in the antibiotic susceptibility phase of testing with or without a longer incubation period. […] Antimicrobial solutions are prepared at known concentrations. The specific antimicrobials and their concentrations are selected based on the pathogen of interest and the described antimicrobial resistance breakpoints for that specimen pathogen and antimicrobial combination. These antimicrobials have been selected based on those commonly utilized by healthcare providers in routine clinical care for the specific type of suspected infection. The number and types of antimicrobials utilized can be customized based on the infection source, pathogen detected, patient-specific factors such as allergies or other health conditions (e.g., chronic kidney disease or concurrent medication use), or healthcare provider preferences such as antimicrobial availability or cost. The antimicrobial solutions are prepared in liquid culture media (such as Muller Hinton Broth) to achieve the desired antimicrobial concentration and are then stored at −80° C. until use. For a given specimen, each antimicrobial is tested at a single or multiple antimicrobial concentration(s) which is its established breakpoints for sensitivity. The antimicrobial solutions are prepared and plated out for each specific pathogen. […] This allows for evaluation of pathogen load when no antimicrobial is present. Specimen Exposure to Antimicrobial Agents. The 1 mL aliquot of the specimen 100 previously mixed with culture media and incubated is obtained. Using optical density measurements as a guide, the specimen 100 is diluted to 0.5 McFarland. […] Antimicrobial exposure plates are typically placed into an incubator for 12-16 hours. […] Nucleic Acid Amplification of Antimicrobial Agent Exposed Pathogens. The antimicrobial exposure plate is removed after the period of incubation. The specimen then undergoes a purification or lysis step. For example, the specimen may undergo a purification step (e.g., magnetic bead-based or other separation protocol to isolate genetic material). In another example, the specimen may undergo a cell lysis step. For example, buffer (e.g., lysis buffer) may be added and incubated in the thermal cycler for preparation for direct PCR. Next, the specimen may undergo a polymerase chain reaction (PCR) testing protocol, whereby a semi-quantitative PCR method is utilized. This may be completed either with or without a specific extraction protocol step. The pathogens can be individually targeted and detected, or a universal genetic sequence can be utilized to detect the antimicrobial susceptibility of the specimen as a whole. The control wells are utilized as a threshold for determining antimicrobial sensitivity or resistance. […] Antimicrobial Susceptibility Result Interpretation.

C[C@H]1c2cccc(O)c2C(=O)C2=C(O)[C@]3(O)C(=O)C(C(N)=O)=C(O)[C@@H](N(C)C)[C@@H]3[C@@H](O)[C@@H]21 [Doxycycline]
Molecular Antimicrobial Susceptibility Result (E. coli; E. coli #1 - WDCM 00090 - 6.2×E3): Sensitive (Antimicrobial wells with pathogen load detected below the control wells (typically >2 cycle thresholds later) may be reported as Sensitive) | Ct at Sensitive Breakpoint (E. coli; E. coli #1 - WDCM 00090 - 6.2×E3, Ct at control 13.787): 25.83 | Molecular Antimicrobial Susceptibility Result (E. coli; E. coli #2 - WDCM 00090 - 6.2×E3): Sensitive (Antimicrobial wells with pathogen load detected below the control wells (typically >2 cycle thresholds later) may be reported as Sensitive) | Ct at Sensitive Breakpoint (E. coli; E. coli #2 - WDCM 00090 - 6.2×E3, Ct at control 13.46): 27.02

Amoxicillin/Clavulanate
Traditional Culture Result (pathogen of the specimen [1]): Resistant | Molecular Antimicrobial Susceptibility Result (pathogen of the specimen [2]; E. coli isolate 1189, antibiotic incubation time 4 hours): Resistant | Ct at Sensitive Breakpoint (pathogen of the specimen [2]; E. coli isolate 1189, antibiotic incubation time 4 hours, control average Ct […]): 16.799 | Molecular Antimicrobial Susceptibility Result (pathogen of the specimen [2]; E. coli isolate 1189, antibiotic incubation time 6 hours): Resistant | Ct at Sensitive Breakpoint (pathogen of the specimen [2]; E. coli isolate 1189, antibiotic incubation time 6 hours, control average Ct 16.992): 17.105 | Molecular Antimicrobial Susceptibility Result (pathogen of the specimen [2]; E. coli isolate 1189, antibiotic incubation time 8 hours): Resistant | Ct at Sensitive Breakpoint (pathogen of the specimen [2]; E. coli isolate 1189, antibiotic incubation time 8 hours, control average Ct […]): 17.430 | Molecular Antimicrobial Susceptibility Result (pathogen of the specimen [2]; E. coli isolate 1189, antibiotic incubation time 10 hours): Resistant | Ct at Sensitive Breakpoint (pathogen of the specimen [2]; E. coli isolate 1189, antibiotic incubation time 10 hours, control average Ct 15.995): 15.606 | Molecular Antimicrobial Susceptibility Result (pathogen of the specimen [2]; E. coli isolate 1189, antibiotic incubation time 14 hours): Resistant | Ct at Sensitive Breakpoint (pathogen of the specimen [2]; E. coli isolate 1189, antibiotic incubation time 14 hours, control average Ct 15.826): 14.226 | Molecular Antimicrobial Susceptibility Result (pathogen of the specimen [2]; E. coli isolate 1189, antibiotic incubation time 16 hours): Resistant | Ct at Sensitive Breakpoint (pathogen of the specimen [2]; E. coli isolate 1189, antibiotic incubation time 16 hours, control average Ct 14.880): 14.825

— patent US20250290117A1, “MOLECULAR PHENOTYPIC ANTIMICROBIAL SUSCEPTIBILITY TESTING” (priority 2024, published 2025)
